Like-named read-outs stand apart in the source and are kept apart here.
Assays:
[1] = tested on: Mino cells; test: Inhibition of cell proliferation, Mino cells (Cell Viability Assay, 72 h); format: cell-based, human; details: for Mino Max inhi. %: inhibition rate at the highest concentration of the compound
Experimental: (§1) SU-DHL-4, Mino, and SU-DHL-6 cells, in the culture medium of RPMI1640+10% FBS, were cultured in an incubator at 37° C. under 5% CO2. Cells were plated in a 96-well plate. Specifically, SU-DHL-4 cells were at 20000/well, Mino and SU-DHL-6 cells were at 5000/well, with 90 μL/well. 10 μL of the compounds at different concentrations were added to each well. There were 3 replicate wells for each concentration, and the last column, added with DMSO, was used as a vehicle control group. The cultures were continued for 72 hours at 37° C. under 5% CO2. After 72 hours, 100 μL of detection reagent (Cell Viability Assay, Promega, G7573) was added to each well, and the cultures were uniformly mixed for 2 minutes, and incubated at room temperature for 10 minutes. The […] signal value was measured with a microplate reader (PHERAstar FSX). The IC50 value of the compound on cell proliferation inhibition was calculated using origin9.2 software, and the inhibition rate at the highest concentration of the compound (Max inhi.%) was calculated according to formula (1).
(§2) Max inhi.%=(1−T72administration/T72vehicle)×100 Formula (1).

[2] = Pharmacokinetic experiment in rats; format: in vivo; details: male, SD, rat, po, plasma, i.g. (20 mg/kg); for AUC(0-t): single dose
Experimental: Experimental objective: In this experiment, a single dose of each test compound was administered to SD rats intravenously and intragastrically, the concentrations of the test compound in plasma of rats were measured, and the pharmacokinetic characteristics and bioavailability of the test compound in rats were evaluated.
Experimental animals: Male SD rats, about 200 g, 6-8 weeks old, 6 rats/compound. Rats were purchased from Hunan SJA Laboratory Animal Co., Ltd, with the laboratory animal production license number of SCXK (Xiang) 2019-004.
Experimental method: On the day of the experiment, 6 SD rats were randomly grouped according to their body weight. The animals were fasted with water available for 12 to 14 hours one day before the administration of a test compound, and were fed 4 hours after the administration.
Before and after the administration, […] of blood was taken from the orbit of the rats under isoflurane anesthesia, and placed in an EDTAK2 centrifuge tube. Centrifugation was carried out at 5000 rpm at 4° C. for 10 min, and the plasma was collected.
Time points for sample collection in G1&G2 groups comprise
Before analysis and detection, all samples were stored at −80° C. The samples were detected by HPLC-MS/MS.

[3] = tested on: SU-DHL-6 cells; test: Inhibition of cell proliferation, SU-DHL-6 cells (Cell Viability Assay, 72 h); format: cell-based, human
Experimental: as §1, §2

| Structure (SMILES) | AUC(0-t) [2] | IC50 ([3]; Homo sapiens, SU-DHL-6, 72 h) | IC50 ([1]; Homo sapiens, MINO, 72 h) | other results |
| --- | --- | --- | --- | --- |
| NC(=O)c1c(-c2ccc(Oc3ccccc3)cc2)nn2c1NCC[C@H]2C1CCN(C2CCN(CC3CCN(c4ccc5c(c4)C(=O)N(C4CCC(=O)NC4=O)C5=O)CC3)CC2)CC1 (stereo partly drawn) [Compound 81, (7S)-7-(1′-((1-(2-(2,6-dioxopiperidin-3-yl)-1,3-dioxoisoindolin-5-yl)piperidin-4-yl)methyl)-[1,4′-bipiperidin]-4-yl)-2-(4-phenoxyphenyl)-4,5,6,7-tetrahydropyrazolo[1,5-a]pyrimidine-3-carboxamide] |  |  |  | Mino Max inhi. % [1]: 99.9% |
| NC(=O)c1c(-c2ccc(Oc3ccccc3)cc2)nn2c1NCC[C@H]2C1CCN(C2CCN(CC3CN(c4ccc5c(c4)C(=O)N(C4CCC(=O)NC4=O)C5=O)C3)CC2)CC1 (stereo partly drawn) [Compound 82, (7S)-7-(1′-((1-(2-(2,6-dioxopiperidin-3-yl)-1,3-dioxoisoindolin-5-yl)azetidin-3-yl)methyl)-[1,4′-bipiperidin]-4-yl)-2-(4-phenoxyphenyl)-4,5,6,7-tetrahydropyrazolo [1,5-a]pyrimidine-3-carboxamide] |  |  |  | Mino Max inhi. % [1]: 99.9% |
| NC(=O)c1c(-c2ccc(Oc3ccccc3)cc2)nn2c1NCC[C@H]2C1CCN(CC2CCN(c3ccc4c(c3)C(=O)N(C3CCC(=O)NC3=O)C4=O)CC2)CC1 (stereo partly drawn) [Compound 83, (7S)-7-(1-((1-(2-(2,6-dioxopiperidin-3-yl)-1,3-dioxoisoindolin-5-yl)piperidin-4-yl)methyl)piperidin-4-yl)-2-(4-phenoxyphenyl)-4,5,6,7-tetrahydropyrazolo[1,5-a]pyrimidine-3-carboxamide] |  |  |  | Mino Max inhi. % [1]: 99.7% |
| Nc1ncnc2c1c(-c1ccc(Oc3ccccc3)c(F)c1)nn2C1CCN(C2CN(C3CN(c4ccc5c(c4)C(=O)N(C4CCC(=O)NC4=O)C5=O)C3)C2)CC1 (stereo not shown) [Compound 95, 5-(3-(4-(4-amino-3-(3-fluoro-4-phenoxyphenyl)-1H-pyrazolo[3,4-d]pyrimidin-1-yl)piperidin-1-yl)-[1,3′-biazetidin]-1′-yl)-2-(2,6-dioxopiperidin-3-yl)isoindoline-1,3-dione] | 4270 ± 739 ng·h/mL |  | 100 nM | bioavailability [2]: 12.3 ± 2.1% |
| Nc1ncnc2c1c(-c1ccc(Oc3ccccc3)c(F)c1)nn2C1CCN(C2CCN(C3CN(c4ccc5c(c4)C(=O)N(C4CCC(=O)NC4=O)C5=O)C3)CC2)CC1 (stereo not shown) [Compound 96, 5-(3-(4-(4-amino-3-(3-fluoro-4-phenoxyphenyl)-1H-pyrazolo[3,4-d]pyrimidin-1-yl)-[1,4′-bipiperidin]-1′-yl)azetidin-1-yl)-2-(2,6-dioxopiperidin-3-yl)isoindoline-1,3-dione] |  |  | 501 nM |  |
| Nc1ncnc2c1c(-c1ccc(Oc3ccccc3)cc1)nn2[C@H]1CCN(C2CN(CC3CN(c4ccc5c(c4)C(=O)N(C4CCC(=O)NC4=O)C5=O)C3)C2)C[C@H]1F (stereo partly drawn) [Compound 104, 5-(3-((3-((3R,4S)-4-(4-amino-3-(4-phenoxyphenyl)-1H-pyrazolo[3,4-d]pyrimidin-1-yl)-3-fluoropiperidin-1-yl)azetidin-1-yl)methyl)azetidin-1-yl)-2-(2,6-dioxopiperidin-3-yl)isoindoline-1,3-dione] | 1320 ± 653 ng·h/mL | 23 nM | 16 nM |  |
| Nc1ncnc2c1c(-c1ccc(Oc3ccccc3)cc1)nn2C1CCN(C2CN(CC3CN(c4ccc5c(c4)CN(C4CCC(=O)NC4=O)C5=O)C3)C2)CC1 (stereo not shown) [Compound 107, 3-(5-(3-((3-(4-(4-amino-3-(4-phenoxyphenyl)-1H-pyrazolo[3,4-d]pyrimidin-1-yl)piperidin-1-yl)azetidin-1-yl)methyl)azetidin-1-yl)-1-oxoisoindolin-2-yl)piperidine-2,6-dione] | 610 ± 131 ng·h/mL |  |  |  |
| Nc1ncnc2c1c(-c1ccc(Oc3ccccc3)cc1)nn2C1CCN(C2CN(CC3CN(c4ccc5c(c4)CN(C4CCC(=O)NC4=O)C5=O)C3)C2)CC1 (stereo not shown) [Trifluoroacetate of compound 107, 3-(5-(3-((3-(4-(4-amino-3-(4-phenoxyphenyl)-1H-pyrazolo[3,4-d]pyrimidin-1-yl)piperidin-1-yl)azetidin-1-yl)methyl)azetidin-1-yl)-1-oxoisoindolin-2-yl)piperidine-2,6-dione] |  |  |  | IC50 [3]: 22 nM; IC50 [1]: 34 nM |
| Nc1ncnc2c1c(-c1ccc(Oc3ccccc3)cc1)nn2C1CCN(C2CN(CC3CN(Cc4ccc5c(c4)C(=O)N(C4CCC(=O)NC4=O)C5=O)C3)C2)CC1 (stereo not shown) [Trifluoroacetate of compound 109, 5-((3-((3-(4-(4-amino-3-(4-phenoxyphenyl)-1H-pyrazolo[3,4-d]pyrimidin-1-yl)piperidin-1-yl)azetidin-1-yl)methyl)azetidin-1-yl)methyl)-2-(2,6-dioxopiperidin-3-yl)isoindoline-1,3-dione] |  |  |  | IC50 [3]: 145 nM; IC50 [1]: 356 nM |

Continued, in another order:

| AUC(0-t) [2] | IC50 ([3]; Homo sapiens, SU-DHL-6, 72 h) | Structure (SMILES) | IC50 ([1]; Homo sapiens, MINO, 72 h) | other results |
| --- | --- | --- | --- | --- |
| 176 ± 57 ng·h/mL |  | Nc1ncnc2c1c(-c1ccc(Oc3ccccc3)cc1)nn2C1CCN(C2CCN(CC3CN(c4ccc5c(c4)C(=O)N(C4CCC(=O)NC4=O)C5=O)C3)CC2)CC1 (stereo not shown) [Compound 84, 5-(3-((4-(4-amino-3-(4-phenoxyphenyl)-1H-pyrazolo[3,4-d]pyrimidin-1-yl)-[1,4′-bipiperidin]-1′-yl)methyl)azetidin-1-yl)-2-(2,6-dioxopiperidin-3-yl)isoindoline-1,3-dione] | 32 nM |  |
| 247 ± 73 ng·h/mL |  | Nc1ncnc2c1c(-c1ccc(Oc3ccccc3)cc1)nn2C1CCN(C2CCN(CC3CCN(c4ccc5c(c4)C(=O)N(C4CCC(=O)NC4=O)C5=O)CC3)CC2)CC1 (stereo not shown) [Compound 86, 5-(4-((4-(4-amino-3-(4-phenoxyphenyl)-1H-pyrazolo[3,4-d]pyrimidin-1-yl)-[1,4′-bipiperidin]-1′-yl)methyl)piperidin-1-yl)-2-(2,6-dioxopiperidin-3-yl)isoindoline-1,3-dione] | 42 nM |  |
|  | 331 nM | Nc1ncnc2c1c(-c1ccc(Oc3ccccc3)cc1)nn2C1CCN(C2CN(CC3CN(c4cccc5c4C(=O)N(C4CCC(=O)NC4=O)C5=O)C3)C2)CC1 (stereo not shown) [Compound 105, 4-(3-((3-(4-(4-amino-3-(4-phenoxyphenyl)-1H-pyrazolo[3,4-d]pyrimidin-1-yl)piperidin-1-yl)azetidin-1-yl)methyl)azetidin-1-yl)-2-(2,6-dioxopiperidin-3-yl)isoindoline-1,3-dione] | 208 nM |  |
| 3210 ± 728 ng·h/mL | 95 nM | Nc1ncnc2c1c(-c1ccc(Oc3ccccc3)cc1)nn2C1CCN(C2CN(CC3CN(c4cc5c(cc4F)C(=O)N(C4CCC(=O)NC4=O)C5=O)C3)C2)CC1 (stereo not shown) [Compound 106, 5-(3-((3-(4-(4-amino-3-(4-phenoxyphenyl)-1H-pyrazolo[3,4-d]pyrimidin-1-yl)piperidin-1-yl)azetidin-1-yl)methyl)azetidin-1-yl)-2-(2,6-dioxopiperidin-3-yl)-6-fluoroisoindoline-1,3-dione] | 119 nM | bioavailability [2]: 14.4 ± 3.3% |
|  | 99 nM | Nc1ncnc2c1c(-c1ccc(Oc3ccccc3)cc1)nn2C1CCN(C2C[C@@H]3CN(CC4CN(c5ccc6c(c5)C(=O)N(C5CCC(=O)NC5=O)C6=O)C4)C[C@@H]3C2)CC1 (stereo partly drawn) [Trifluoroacetate of compound 100, 5-(3-(((3aR,6aS)-5-(4-(4-amino-3-(4-phenoxyphenyl)-1H-pyrazolo[3,4-d]pyrimidin-1-yl)piperidin-1-yl)hexahydrocyclopenta[c]pyrrol-2(1H)-yl)methyl)azetidin-1-yl)-2-(2,6-dioxopiperidin-3-yl)isoindoline-1,3-dione] | 123 nM |  |
|  | 77 nM | Nc1ncnc2c1c(-c1ccc(Oc3ccccc3)cc1)nn2C1CCN(C2CC3(CCN(CC4CN(c5ccc6c(c5)C(=O)N(C5CCC(=O)NC5=O)C6=O)C4)CC3)C2)CC1 (stereo not shown) [Trifluoroacetate of compound 101, 5-(3-((2-(4-(4-amino-3-(4-phenoxyphenyl)-1H-pyrazolo[3,4-d]pyrimidin-1-yl)piperidin-1-yl)-7-azaspiro[3.5]nonan-7-yl)methyl)azetidin-1-yl)-2-(2,6-dioxopiperidin-3-yl)isoindoline-1,3-dione] | 77 nM |  |
|  | 23 nM | Nc1ncnc2c1c(-c1ccc(Oc3ccccc3)cc1)nn2C1CCN(C2CN(C3CN(CC4CN(c5ccc6c(c5)C(=O)N(C5CCC(=O)NC5=O)C6=O)C4)C3)C2)CC1 (stereo not shown) [Trifluoroacetate of compound 102, 5-(3-((3-(4-(4-amino-3-(4-phenoxyphenyl)-1H-pyrazolo[3,4-d]pyrimidin-1-yl)piperidin-1-yl)-[1,3′-biazetidin]-1′-yl)methyl)azetidin-1-yl)-2-(2,6-dioxopiperidin-3-yl)isoindoline-1,3-dione] | 42 nM |  |

— US20230248833A1, “COMPOUND HAVING BTK KINASE DEGRADING ACTIVITY, AND PREPARATION METHOD AND PHARMACEUTICAL USE THEREFOR” (SICHUAN HAISCO PHARMACEUTICAL CO., LTD., priority 2020, published 2023)
